This is an account of results in patent US20080226698A1 (priority 2007, published 2008).

Regarding `CN1[C@@H]2C[C@@H](OC(=O)[C@H](CO)c3ccccc3)C[C@H]1[C@@H]1O[C@@H]12` [scopolamine], the “Tg of the amorphous form relative to normal storage temperature” value (normal storage temperature of 20° C. to 25° C.) is listed as “lower than the normal storage temperature”.

Take `CCN(CC)CC#CCOC(=O)C(O)(c1ccccc1)C1CCCCC1` (centres unmarked) [oxybutynin base, oxybutynin]: the “Glass transition temperature of the amorphous form” value (DSC) is “about −20 °C”.
